Test results as given in patent US5538962A, “Antibiotic penem compounds” (Zeneca Limited, priority 1992, dated 1996).
In brackets after ≈: the same amount, converted by molar mass.

Legend:
Test in all cases: MIC, in vitro Diagnostic Sensitivity Test, agar-dilution technique
Format in all cases: cell-based
S. aureus 147N = conditions: Staphylococcus aureus, inoculum 10^4 CFU/spot, read-out: minimum inhibitory concentration (MIC)
Source text: (§1) The following results were obtained for representative compounds on a standard in vitro test system using Diagnostic Sensitivity Test. The antibacterial activity is described in terms of the minimum inhibitory concentration (MIC) determined by the agar-dilution technique with an inocukum size of 10^4 CFU/spot.

E. coli TEM = conditions: Escherichia coli, read-out: minimum inhibitory concentration (MIC)
Source text: as §1

Enterbacter cloacae 108 = conditions: inoculum 10^4 CFU/spot, read-out: minimum inhibitory concentration (MIC)
Source text: as §1

Enterobacter cloacae 029 = conditions: inoculum 10^4 CFU/spot, read-out: minimum inhibitory concentration (MIC)
Source text: as §1

SMILES	MIC (S. aureus 147N)	MIC (E. coli TEM)	MIC (Enterbacter cloacae 108)	MIC (Enterobacter cloacae 029)
CC(O)C1C(=O)N2C(C(=O)O)=C(SC3CNC(C(=O)Nc4csc(C(=O)O)c4)C3)SC12 [Example 1, (5R,6S,8R,2'S,4'S)-2-(2-(2-carboxy-4-thienylcarbamoyl)pyrrolidin-4-ylthio)-6-(1-hydroxyethyl)pen-2-em-3-carboxlic acid]	0.125 µg/mL (≈ 0.257 µM)	0.008 µg/mL (≈ 0.0165 µM)	0.5 µg/mL (≈ 1.03 µM)	0.015 µg/mL (≈ 0.0309 µM)
CO/N=C(\C(=O)N[C@@H]1C(=O)N2C(C(=O)O)=C(CSc3nc(=O)c(=O)[nH]n3C)CS[C@H]12)c1csc(N)n1 [ceftriaxone]	2 µg/mL (≈ 3.61 µM)	0.03 µg/mL (≈ 0.0541 µM)	32 µg/mL (≈ 57.7 µM)	0.06 µg/mL (≈ 0.108 µM)
